Calls of active or inactive are those of the source.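 The calls were made as follows: active = compounds giving half or more protection of infected cells from virus-caused growth loss, again on retest; inactive = the rest.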
Test system: CEM cells HIV-1 protection, formazan growth assay
Assay: NCI AIDS Antiviral Assay
Settings: for IC50: measured here: growth of uninfected CEM cells
Summary of the method: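 CEM (human) cells, HIV-1 infected vs uninfected, 5-point dosing, formazan growth read-out. Retest threshold 50% protection.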

`NC(N)=NC(CSSCC(N=C(N)N)C(=O)O)C(=O)O` (stereo unspecified) showed an EC50 greater than 200 µM and an IC50 greater than 200 µM.
`BrC12c3ccccc3Sc3ccccc3C1(Br)c1ccccc12` (stereo unspecified) was tested, and the outcome was “inactive”.
`Cc1ccc(NC(c2ccccc2)P(=O)(c2ccccc2)c2ccccc2)cc1` (stereo unspecified) showed an EC50 greater than 200 µM and an IC50 greater than 200 µM.
With `COc1ccc2nc(NC(=O)C(=O)CC(=O)c3ccc([N+](=O)[O-])cc3)sc2c1` the outcome was “inactive”.
`CN(C)c1nc(=NCc2ccncc2)ss1` showed an EC50 greater than 200 µM and an IC50 of 10.7 µM.
`CCC(COC(=O)CC[C@@H](NC(=O)C(C)NC(=O)C(C)OC1C(O)C(CO)OC(OCc2ccccc2)C1NC(C)=O)C(N)=O)NC1c2ccccc2Nc2cccc([N+](=O)[O-])c21` (stereo partly specified) was tested, and the EC50 was greater than 200 µM and the IC50 was 145 µM.
`O=C(O)CCC(O)=C1S(=O)(=O)OCCOS1(=O)=O` gave an EC50 greater than 4470 µM and an IC50 of 331 µM.
Work on `c1ccc2c(c1)NC(SSC1Nc3ccccc3S1)S2` (stereo unspecified) yielded an EC50 greater than 200 µM and an IC50 greater than 200 µM.
In the case of `COc1ccc(C2=C(OC(C)=O)c3cccn3-c3ccc(Cl)cc3S2)cc1`, the EC50 is reported as greater than 200 µM and the IC50 is reported as 12.3 µM.
`CCOC(=O)c1[nH]n(-c2ccccc2)c(=O)c1C=NC(=S)C(N)=S` showed an EC50 greater than 200 µM and an IC50 of 33.9 µM.
Work on `COc1cc([N+](=O)[O-])ccc1NC(=O)C(F)(F)F` yielded an EC50 greater than 200 µM and an IC50 of 57.5 µM.
`OC1(c2ccc(Cl)cc2)c2ccccc2C2=NCc3ccccc3CN21` (stereo unspecified) was tested, and the EC50 was greater than 200 µM and the IC50 was 33.1 µM.
With `COc1ccc(N=Nc2c(-c3ccccc3)nn(C(=O)CC(=O)Nc3ccccc3Cl)c2-c2ccccc2)cc1` the EC50 was greater than 24.5 µM and the IC50 was 22.9 µM.
`COC1C(O)CC(=O)OC(C)C/C=C/C=C/C(OC2CCC(N(C)C)C(C)O2)C(C)CC(CC=O)C1OC1OC(C)C(OC2CC(C)(O)C(O)C(C)O2)C(N(C)C)C1O` (stereo unspecified) was tested, and the EC50 was greater than 200 µM and the IC50 was greater than 200 µM.
With `C[N+](C)(C)CCC#CC[N+]1(C)CCCC1` the outcome was “inactive”.
`CC(=O)N=C1N(/C=C2\C(=O)Oc3ccccc3C2=O)C(=O)/C(=C/c2cccc(Cl)c2Cl)N1C` was tested, and the EC50 was greater than 200 µM and the IC50 was 26.3 µM.
`Cc1ccc(-n2c(Cn3nnc(-c4cccnc4)n3)nn(C3OC(COC(=O)c4ccccc4)C(OC(=O)c4ccccc4)C3OC(=O)c3ccccc3)c2=S)cc1C` (stereo unspecified) showed an EC50 greater than 100 µM and an IC50 greater than 100 µM.
`CCOC(=O)c1c[nH]c2oc(/C=N/N3CC(CN4CCOCC4)OC3=O)cc2c1=O` (stereo unspecified) was tested, and the EC50 was greater than 302 µM and the IC50 was 162 µM.
`O=C1OC(=O)C2CC3C(CC12)C1(Cl)C(Cl)=C(Cl)C3(Cl)C1(Cl)Cl` (stereo unspecified) gave an EC50 greater than 200 µM and an IC50 of 6.61 µM.
Molecule `COc1ccc2c(c1)C(N)=C(c1ccccc1OC)C2=O` has an EC50 greater than 200 µM and an IC50 of 120 µM.
In the case of `CSc1c(C(=O)Nc2ccc(C)cc2)c(N)n(N)c(=O)c1C#N`, the EC50 is reported as 100 µM and the IC50 is reported as 151 µM.
`COc1cccc(/C=C/C(=O)C(C)(C)C)c1` gave an EC50 greater than 24 µM and an IC50 greater than 24 µM.
For `CN1Cc2ccccc2C2(COc3ccc(C=O)cc3C2=O)C1` (stereo unspecified), the outcome was “inactive”.
`CC(=O)SCC1OC(n2cc(C)c(=O)[nH]c2=O)C/C1=N\O` (stereo unspecified) was tested, and the EC50 was greater than 200 µM and the IC50 was greater than 200 µM.
With `COc1cccc([B-]23OCC[N+]2(CNC(=O)C2=C(O)C4(O)C(=O)C5=C(O)c6c(O)cccc6C(C)(O)C5CC4C(N(C)C)C2=O)CCO3)c1` (stereo unspecified) the EC50 was greater than 38 µM and the IC50 was greater than 38 µM.
In the case of `COC(=O)C(=O)C(C(=O)C=C(C)C)C(=O)C(=O)Nc1cc(C(F)(F)F)ccc1Cl` (stereo unspecified), the EC50 is reported as greater than 83.2 µM and the IC50 is reported as greater than 83.2 µM.
`CC[CH2][Sn]([CH2]CC)([O]C(=O)Cc1ccc(F)cc1)[O][Sn]([CH2]CC)([CH2]CC)[O]C(=O)Cc1ccc(F)cc1` gave an EC50 greater than 5.13 µM and an IC50 of 3.24 µM.
`CC(=O)c1c(O)cc(O)cc1-c1cc(=O)c2c(O)ccc(C(C)=O)c2o1` was tested, and the EC50 was greater than 200 µM and the IC50 was 170 µM.
Work on `Nc1c(O)c(C(=O)O)cc2ccccc12` yielded an EC50 greater than 200 µM and an IC50 of 17.8 µM.
Work on `CCCCNC(=O)Sc1ccccc1C(=O)NCCS(N)(=O)=O` yielded an EC50 of 0.141 µM and an IC50 of 50.1 µM.
In the case of `N#Cc1nc(C2CCC(=O)O2)oc1N` (stereo unspecified), the EC50 is reported as greater than 200 µM and the IC50 is reported as greater than 200 µM.
Molecule `COC(=O)[C@@H]1CC2(CCOCc3ccccc3)C=CCN3CC[C@@]1(c1ccccc1NC(=O)C(C)(C)C)C32` (stereo partly specified) has an EC50 greater than 126 µM and an IC50 greater than 126 µM.
`CCCCn1cnc2ccc3[nH]c(C)nc3c2c1=O` was tested, and the EC50 was greater than 759 µM and the IC50 was 55 µM.
For `O=c1[nH][n+]([O-])cc2c(C(O)=C(O)O)c[nH]c12`, the outcome was “inactive”.
With `COc1ccc(OC(C)C(=O)O)c2c1CCCC2=O` (stereo unspecified) the outcome was “inactive”.
In the case of `c1ccc(C2CN3CCSC3=N2)cc1` (stereo unspecified), the EC50 is reported as greater than 200 µM and the IC50 is reported as greater than 200 µM.
For `COC(=O)C1=C(C)N2[C@H](C(=O)O)CO[C@@]2(C)[C@H](C(=O)OC)[C@H]1c1cccc([N+](=O)[O-])c1`, the EC50 was greater than 200 µM and the IC50 was greater than 200 µM.
`N#CC1(C#N)C2C=CC(C3CCC=C32)C1(C#N)C#N` (stereo unspecified) gave an EC50 greater than 200 µM and an IC50 of 7.76 µM.
`O=c1[nH]c(=O)n(C2CC(O)C(CO)O2)cc1S` (stereo unspecified) was tested, and the outcome was “inactive”.
`CCN(CC)CCC(=O)c1ccc(Oc2ccccc2)cc1` gave an EC50 greater than 200 µM and an IC50 of 17.4 µM.
In the case of `O=C1OC(c2ccc3c(c2)OCO3)Sc2ccccc21` (stereo unspecified), the EC50 is reported as greater than 18.2 µM and the IC50 is reported as greater than 18.2 µM.
With `O=[N+]([O-])c1cccc(-c2nc3ccccc3[nH]2)c1` the outcome was “inactive”.
`C/C(=N/OC(=O)N(C)C)c1ccccc1` was tested, and the EC50 was greater than 200 µM and the IC50 was greater than 200 µM.
`O=c1oc2c(O)c(O)cc3c(=O)oc4c(O)c(O)cc1c4c23` was tested, and the EC50 was greater than 66.1 µM and the IC50 was 42.7 µM.
In the case of `O=C(N/C(=C\c1ccc([N+](=O)[O-])cc1)c1nc2[nH]c(=S)[nH]c(=O)c2[nH]1)c1ccccc1`, the outcome is reported as “inactive”.

From PubChem BioAssay AID179 (DTP/NCI, 2004)
